Columns and labels:
[1] = tested on: Fibroblasts originating in the human skin; experiment: Promotion of growth of dermal fibroblasts (Test Example 1); format: cell-based; settings: 10⁻⁵ M, 1% serum, 14 days; words of the text only, Table 2 is an image
Description: The action of promoting the growth of dermal fibroblasts by the coenzymes and nucleic acid related substances used in the present invention was evaluated in accordance with the following method:
Fibroblasts originating in the human skin were cultured in media to which the above-described compounds had been added and to which no such compound was added under serum controlled conditions and the effect of the compounds on proliferation was examined. That is, the above-described fibroblasts were cultured in a Co₂-incubator at 37°C for 24 hours in Eagle's MEM medium (pH 7.6) to which were added 10% of fetal bovine serum and the like. The medium was then changed to a medium in which the serum was lowered 1% and in which the fibroblasts were then cultured for 24 hours. The medium was then changed into a medium containing 10⁻⁵ M of a substance for examination and 1% of serum in which the culture was continued.
The medium was then changed on alternate days. The results obtained are shown in Table 2 in which the number of cells for each case is shown by a relative value obtained by assuming the number of cells after 14 days to be 100 in the case of the control in which no substance for examination was added.

collagen = experiment: Promotion of collagen production in skin-excised rats: weight of granulation and hydroxyproline (Test Example 2); format: in vivo, Wistar 6-week old male rats; settings: for increases in the weights of regenerated granulation and the amounts of hydroxyproline (in words): summary of Table 3
Description: The action of promoting the production of collagen by the coenzymes and the nucleic acid related substances used in the present invention was evaluated in accordance with the following method:
Each rat was killed on the seventh day, and then the circular portion was cut out and the weight of granulation (derma) and the amount of hydroxyproline, which is a specific amino acid constituting collagen, were measured as an index of the amount of reproduced collagen.

collagen elastin fibril = experiment: Tensile strength of healed linear skin cut in rats (Test Example 3); format: in vivo, Wistar 6-week old male rats; settings: for increases in the tensile strength of collagen elastin fibril (in words): summary of Table 4
Description: The effect of the coenzymes and the nucleic acid related substances against the strength of collagen elastin fibril was conducted as follows:
After hair had been removed from the back of each rat in a group comprising eight Wistar 6-week old male rats, the back of the rat was cut along the median line of the back by a scalpel to make a linear cut portion having a length of 4 cm, and the cut portion was sewed up at 3 positions at equally spaced intervals by Michel's clips. The Michel's clips were removed 3 days after the sewing. 0.1 ml of each of physiological saline containing 50 mM of the above described compound or a physiological saline containing no compound (control) was repeatedly applied to the cut portion once a day for 7 days. Each rat was killed on the eighth day, and the skin of the cut portion was cut out to prepare three samples per rat, each sample being a strip of skin having a width of 1 cm crossing the cutting line.
The tensile strength of the sample up to breakage point was measured by a tensiometer to determine the strength of reproduced collagen elastin fibril. In the Table, values of the strength are shown as relative values obtained on the assumption that those of the control were 100.
In the above test, a relative value of the strength of more than 110 is considered to show an increase in the tensile strength.

Acute oral toxicity = format: in vivo; settings: rat
[2] = guinea pig, in vivo
[3] = guinea pig, in vivo; remark: listed apart in the source
[4] = rabbit, in vivo
[5] = guinea pig, in vivo; remark: listed apart in the source
[6] = guinea pig, in vivo; remark: listed apart in the source
[7] = in vivo
[8] = Half face use test of cosmetic agents on women: elasticity, complexion, roughness, wrinkling of the skin; format: in vivo, human; settings: Example 9: toilet water as in Example 7 with this compound in place of N²,O^2ʹ-DBcGMP Na
Excerpt: Two groups each of which comprised 20 statistically-equivalent women (30 to 50 years old) were selected and the toilet water samples I and II were applied separately to the right and left face portions, respectively, of each woman in one group and the toilet water samples I and III were respectively applied to same portions of each woman in the other group by a half face method twice a day (in the morning and at night) for 3 months. The degree of improvement in terms of elasticity, complexion, roughness, and wrinkling of the skin were then examined. […]
The effectiveness of thus-prepared toilet waters was actually measured by the same method as set forth in Example 1.
The toilet water samples of the present invention and of the comparison were applied separately to the right and left face portions, respectively, of each woman in a group comprising 20 women (30 to 50 years old) by a half face method twice a day (in the morning and at night) for 3 months. The degree of improvement in terms of elasticity, complexion, roughness, and wrinkles of the skin was then examined. […]

[9] = Colour tone of the skin of colored guinea pigs, color-difference meter (Example 10); format: in vivo, guinea pig; settings: cream with 0.5% of active principle, twice a day for 14 days; larger value = whiter skin
Description: After hair had been removed from the back of each colored guinea pig (3 guinea pigs in a group), a cream with which 0.5% of an active principle was mixed (cGMP or its derivatives in place of FAD 2Na used in Example 2) and a cream containing no active principle were respectively applied to the back of each guinea pig twice a day (in the morning and at night) every day for 14 days. The difference in colour tone of the skin before and after the application was measured by a color-difference meter.
The numerical values shown in the table are L-values (lightness) and a larger value indicates a whiter skin.

[10] = Lightness of discolored spot or freckled portion of human skin, color-difference meter (Example 11); format: in vivo; settings: Example 12: cream as in Example 11 with this compound instead of N²,O^2ʹ-DBcGMP Na and cGMP Na
Description: Creams having the compositions shown in Table 23 were prepared and then applied to a discolored spot or freckled portion of the skin of each of 6 men and women in the morning and at night twice a day for 3 months. The lightness of the discolored spot portions was measured by a color-difference meter before and after the application.
The numerical values obtained before and after the application shown in the table are L-values (lightness).

[11] = Safety tests in the same way as in Example 1 (acute toxicity, skin irritation, skin sensitization); format: in vivo
Excerpt: The above-described coenzymes and nucleic acid related substances used in the present invention are widely present in organisms and are thus thought to be extremely safe.

[12] = relative value, control = 100, 0.1 ml of 50 mM in 10% ethanol twice a day for 6 days, seventh day
[13] = tested in the same way as in Example 1

In the case of 5ʹ-deoxyadenosylcobalamine [CoB12], the “growth promotion functions for human fibroblasts” value [1] is reported as “particularly excellent effects”, the Amount of hydroxyproline (collagen; [12]) is reported as 167 and the Weight of granulation (collagen; [12]) is reported as 181. The “increases in the weights of regenerated granulation and the amounts of hydroxyproline (in words)” value (collagen) was “particularly excellent effects”, the Tensile strength (collagen elastin fibril; relative value, control = 100, more than 110 is considered an increase, 0.1 ml of 50 mM in physiological saline once a day for 7 days, eighth day) was 122 and the “increases in the tensile strength of collagen elastin fibril (in words)” value (collagen elastin fibril) was “particularly excellent effect”. For the same compound, the LD50 value (Acute oral toxicity) was “LD50 value; 5 g/kg or more”, the Primary skin irritation [2] was 5%; non-irritant and the Phototoxicity [3] was “negative”. The Ocular-mucous membrane irritation [4] was 5%, non-irritant, the Skin sensitization [5] was “negative” and the Photosensitization [6] was “negative”. The Human patch test [7] was 5%; non-irritant.
For `Nc1nc2c(nc(Br)n2[C@@H]2O[C@@H]3COP(=O)(O)O[C@H]3[C@H]2O)c(=O)[nH]1` [8-BrcGMP Na], the “effect of preventing the aging of the skin” value (from here on “effect”) [8] was “excellent effects similar to those of Example 7”, the “L-values (lightness) After application” value [9] was 45.4 and the “properties of the creams (lightness of discolored spots)” value (from here on “properties of the creams”) [10] was “results similar to those in Example 11”.
In the case of `Nc1nc2c(nc(Sc3ccc(Cl)cc3)n2[C@@H]2O[C@@H]3COP(=O)(O)O[C@H]3[C@H]2O)c(=O)[nH]1` [8-ClPhScGMP Na], the “L-values (lightness) After application” value [9] is reported as 45.3.
In the case of `CC(C)(COP(=O)(O)OP(=O)(O)OC[C@H]1O[C@@H](n2cnc3c(N)ncnc32)[C@H](O)[C@@H]1OP(=O)(O)O)[C@@H](O)C(=O)NCCC(=O)NCCS` [CoA 3Na, coenzyme A], the “growth promotion functions for human fibroblasts” value [1] is reported as “particularly excellent effects”, the “increases in the weights of regenerated granulation and the amounts of hydroxyproline (in words)” value (collagen) is reported as “particularly excellent effects” and the “increases in the tensile strength of collagen elastin fibril (in words)” value (collagen elastin fibril) is reported as “particularly excellent effect”. For the same compound, the “safety with respect to skin irritation, etc.” value (“safety” for short) ([11]; in vivo) was “no problem was observed”.
In the case of `Cc1cc2nc3c(=O)[nH]c(=O)nc-3n(C[C@H](O)[C@H](O)[C@H](O)COP(=O)(O)OP(=O)(O)OC[C@H]3O[C@@H](n4cnc5c(N)ncnc54)[C@H](O)[C@@H]3O)c2cc1C` [FAD 2Na, Flavin adenine dinucleotide], the “safety” value [11, 13] is reported as “no problem was observed”.
For `NC(=O)c1ccc[n+]([C@@H]2O[C@H](COP(=O)([O-])OP(=O)(O)OC[C@H]3O[C@@H](n4cnc5c(N)ncnc54)[C@H](O)[C@@H]3O)[C@@H](O)[C@H]2O)c1` [NAD Na, β-nicotinamide adenine dinucleotide], the “safety” value [11, 13] was “no problem was observed”.
In the case of `NC(=O)c1ccc[n+]([C@@H]2O[C@H](COP(=O)([O-])OP(=O)(O)OC[C@H]3O[C@@H](n4cnc5c(N)ncnc54)[C@H](OP(=O)(O)O)[C@@H]3O)[C@@H](O)[C@H]2O)c1` [NADP Na, β-nicotinamide adenine dinucleotide phosphate], the “safety” value [11, 13] is reported as “no problem was observed”.
For `CCCC(=O)Nc1nc2c(ncn2[C@@H]2O[C@@H]3COP(=O)(O)O[C@H]3[C@H]2OC(=O)CCC)c(=O)[nH]1` [N^2,O^2'-DBcGMP Na], the “safety” value [11, 13] was “problems such as skin irritating property were not found” and the “L-values (lightness) After application” value [9] was 45.5.
In the case of `O=C(O)CCC(=O)Nc1nc2c(ncn2[C@@H]2O[C@@H]3COP(=O)(O)O[C@H]3[C@H]2OC(=O)CCC(=O)O)c(=O)[nH]1` [N^2,O^2'-DScGMP Na], the “effect” value [8] is reported as “excellent effects similar to those of Example 7” and the “L-values (lightness) After application” value [9] is reported as 45.3.
For `CCCC(=O)Nc1nc2c(ncn2[C@@H]2O[C@@H]3COP(=O)(O)O[C@H]3[C@H]2O)c(=O)[nH]1` [N^2-MBcGMP Na], the “effect” value [8] was “excellent effects similar to those of Example 7”, the “L-values (lightness) After application” value [9] was 44.6 and the “properties of the creams” value [10] was “results similar to those in Example 11”.
For `O=C(O)CCC(=O)Nc1nc2c(ncn2[C@@H]2O[C@@H]3COP(=O)(O)O[C@H]3[C@H]2O)c(=O)[nH]1` [N^2-MScGMP Na], the “L-values (lightness) After application” value [9] was 44.6.
For `CCCC(=O)OC1C2OP(=O)(O)OCC2OC1n1cnc2c(=O)[nH]c(N)nc21` (stereo not drawn) [O^2'-MBcGMP Na], the “effect” value [8] was “excellent effects similar to those of Example 7”, the “L-values (lightness) After application” value [9] was 43.7 and the “properties of the creams” value [10] was “results similar to those in Example 11”.
With `Nc1nc2c(ncn2[C@@H]2O[C@@H]3COP(=O)(O)O[C@H]3[C@H]2OC(=O)CCC(=O)O)c(=O)[nH]1` [O^2'-MScGMP Na] the “L-values (lightness) After application” value [9] was 43.8.
With `O=C(O)c1cc(C(=O)O)c2c(n1)C(=O)C(=O)c1cc(C(=O)O)[nH]c1-2` [PQQ 2Na, Pyrrolo-quinoline quinone] the “safety” value ([11]; in vivo) was “no problem was observed”.
For `Nc1nc2c(ncn2[C@@H]2O[C@@H]3COP(=O)(O)O[C@H]3[C@H]2O)c(=O)[nH]1` [cGMP Na, guanosine 3ʹ,5ʹ-cyclic monophosphate], the “safety” value [11, 13] was “no problem” and the “L-values (lightness) After application” value [9] was 43.0.
